{"source": "paper PMC4549746", "about": "“Zearalenone in the Intestinal Tissues of Immature Gilts Exposed per os to Mycotoxins” (Toxins, 2015)", "key": {"[1]": {"test": "ZEN concentrations and carryover factor in intestinal tissues and liver of pre-pubertal gilts exposed per os (HPLC)", "type": "in vivo", "details": "gilts given ZEN 40 μg/kg BW daily per os, 42 days; detection limits 0.003 µg·g^−1 α-ZEL, 0.002 µg·g^−1 β-ZEL", "experimental": "The animals were divided into an experimental group (E, n = 18) and a control group (C, n = 21). Group E animals were orally administered ZEN at 40 μg/kg BW. Group C pigs were fed a placebo. The animals were fed complete diets in a restricted feeding regimen (Table 1). The daily dose of ZEN (40 µg/kg BW) was administered to each animal individually, which corresponds to exposure to 957–1014 µg ZEN/kg of a complete diet, depending on daily feed intake. Zearalenone was biosynthesized, purified and standardized by the Department of Chemistry of the Poznań University of Life Sciences. The experiment covered a period of 42 days. The mycotoxin was administered per os daily, in gelatine capsules before the morning feeding. The ZEN dose was adjusted to the body weight of the experimental animals. The mycotoxin was administered in capsules to prevent problems associated with uneven feed intake. Mycotoxin samples were diluted in 300 μL of 96% ethyl alcohol (96% ethyl alcohol, SWW 2442-90, Polskie Odczynniki Chemiczne SA, Gliwice, Poland) to the required dose level (based on body weight). Final solutions were stored at room temperature for 12 h to evaporate the solvent. The animals were weighed every 7 days to update mycotoxin doses for each gilt. Three animals from the experimental group and the control group each were sacrificed on Days 1, 7, 14, 21, 28, 35 and 42 (a total of 6 gilts in each week of exposure), excluding day 1, when only 3 control group animals were scarified. Every week, tissue samples were collected from the porcine gastrointestinal tract (duodenum, first and middle sections, jejunum, ileum, cecum, ascending colon, transverse colon, descending colon, middle section, and the liver, left lobe). Tissue samples were collected from the whole intestinal cross-sections.\nPost-mortem tissue samples were collected from the duodenum, jejunum, ileum, cecum, ascending colon, transverse colon, descending colon and the liver after rinsing with phosphate buffer. Pure tissues were stored at −80 °C until shredding and extraction.\nTissue samples (2 g) were homogenized with 9 cm^3 of methanol for 4 min; they were transferred to centrifuge tubes with a minimal amount of the sediment, and the remainder was combined with 5 cm^3 of methanol and repeatedly homogenized. The extracts were combined and centrifuged for 10 min. The supernatant was transferred to a graduated test tube; its volume was read from the scale, and it was evaporated under a stream of nitrogen at a temperature of 60 °C to 0.1–0.2 cm^3 of water. The evaporated product was combined with 2 cm^3 of deionized water, 2 cm^3 of 0.2 M sodium acetate and 500 µL of […] solution. After 16 h of incubation at 37 °C, the reaction was stopped by adding 0.5 cm^3 of acetonitrile. The mixture was quantitatively transferred to a centrifuge tube; it was combined with 10 cm^3 of deionized water and centrifuged for 10 min at 3500 rpm. The supernatant was applied to the Zearala-Test™ column at the rate of 1–2 drops per second. Mycotoxins were eluted from the column with 1.5 mL of methanol; the solvent was evaporated, and the residue was reconstituted with 1 mL of methanol for HPLC analysis.\nThe concentrations of ZEN and its derivatives were determined by HPLC with the use of the Waters 2695 Separations Module, Waters 2475 Multi λ Fluorescence Detector and Waters 2996 Array Detector. Excitation and emission wavelengths were 274 and 440 nm, respectively. The reverse-phase column was C-18 Nova Pak (3.9 × 150 mm), and the mobile phase was acetonitrile-water-methanol (46:46:8, v/v/v) at a flow rate of 0.5 mL·min^−1. The mycotoxins were quantified by measuring the […] of the peaks based on the relevant calibration curves (correlation coefficient of 0.9996 for ZEN, 0.9989 for α-ZEL and 0.9976 for β-ZEL). Detection limits were determined at 0.001 µg·g^−1 for ZEN, 0.003 µg·g^−1 for α-ZEL and 0.002 µg·g^−1 for β-ZEL. […]"}, "[2]": {"design": "method as in PMID 15972077", "details": "animal feed naturally contaminated with ZEN and α-ZEL; cited from earlier work"}, "[3]": {"details": "relative to parent compound ZEN; cited from earlier work"}}, "note": "Entries after “also recorded” stand apart in the source; their conditions may differ."}
{"smiles": "C[C@H]1CCC[C@H](O)CCC/C=C/c2cc(O)cc(O)c2C(=O)O1", "note": "[α-ZEL, α-zearalenol]", "values": [{"measurement": "concentrations of ZEN metabolites in the digestive tract and the liver", "setting": "[1]", "value": "below the sensitivity of the method"}, {"measurement": "absorbed from the duodenum", "setting": "[2]", "value": 65, "unit": "%"}, {"measurement": "estrogenic activity in comparison to ZEN", "setting": "[3]", "value": "three-fold or even four-fold higher; also recorded: three- to four-fold higher"}]}
{"smiles": "C[C@H]1CCC[C@@H](O)CCC/C=C/c2cc(O)cc(O)c2C(=O)O1", "note": "[β-ZEL, β-zearalenol]", "values": [{"measurement": "concentrations of ZEN metabolites in the digestive tract and the liver", "setting": "[1]", "value": "below the sensitivity of the method"}]}
